Source: patent US20110217240A1, “IMAGING NEUROLEPTIC COMPOUNDS” (priority 2008, published 2011)

Test system: apomorphine-induced dopaminergic neurotransmission
Experiment: BOLD fMRI of neuronal/glial activity in conscious rats pre-treated with an antipsychotic and challenged with apomorphine
Type: in vivo, rat
Conditions: for neuronal/glial activity in the anterior thalamic nuclei / neuronal/glial activity in the pituitary gland: antipsychotic pre-treatment i.p. (chlorpromazine, clozapine, olanzapine 5 mg/kg; haloperidol 1 mg/kg)
Source text: To image the brain activity of live rats (Charles River Laboratories, Wilmington, Mass.), the rats were anesthetized with 2-3% isoflurane (Abbott Laboratories, North Chicago, Ill.). Nine (9) rats were used for each experimental condition. A topical anesthetic of 10% lidocaine gel was applied to the skin and soft tissue around the ear canals and over the bridge of the nose. A plastic semi-circular headpiece with blunted ear supports that fit into the ear canals was positioned over the ears. The head was placed into a cylindrical head holder with the rat's canines secured over a bite bar and ears positioned inside the head holder with adjustable screws fitted into lateral sleeves. An adjustable, receive-only surface coil built into the head holder was pressed firmly on the head and locked into place. The body of the rat was placed into a body restrainer. The body restrainer “floats” down the center of the chassis connecting at the front and rear end-plates and buffered by rubber gaskets. The head piece locks into a mounting post on the front of the chassis. This design isolates all of the body movements from the head restrainer and minimizes motion artifact. Once the rat was positioned in the body holder, a transmit-only volume coil was slid over the head restrainer and locked into position.
When the rats were fully conscious, the restraining unit was placed into a black opaque tube mock scanner with a tape-recording of an MRI pulse sequence. This acclimation protocol lasted for 60 minutes in order to simulate the bore of the magnet and the imaging protocol. This procedure was repeated every other day for four days.
Experiments were conducted in a Bruker Biospec 4.7-T/40-cm horizontal magnet (Oxford Instrument, Oxford, U.K.) equipped with a Biospec Bruker console (Bruker, Billerica, Mass., U.S.A.) and a 20 G/cm magnetic field gradient insert (internal diameter=12 cm) capable of a 120 μs rise time (Bruker). Radiofrequency (RF) signals were sent and received with the dual coil electronics built into the animal restrainer (Ludwig et al., 2004, J. Neurosci. Methods 132(2):125-35). The volume coil for transmitting RF signal features an 8-element microstrip line configuration in conjunction with an outer copper shield. The arch-shaped geometry of the receiving surface coil provides excellent coverage and high signal-to-noise. To prevent mutual coil interference, the volume and surface coils were actively tuned and detuned.
Functional images were acquired using a multi-slice fast spin echo sequence. A single data acquisition included twelve (12), 1.2 mm slices collected in 6 seconds (field of view (FOV) 3.0 cm; data matrix 64×64; repetition time (TR) 1.43 sec, effective echo time (Eff TE) 53.3 msec, echo time (TE) 7 msec; rapid acquisition with relaxation enhancement (RARE) factor 16, number of excitations (NEX) 1). This sequence was repeated 100 times in a 10 minute imaging session, consisting of 5 minutes of baseline data followed by 5 minutes of stimulation data. At the beginning of each imaging session, a high resolution anatomical data set was collected using a RARE pulse sequence (12 slice; 1.2 mm; FOV 3.0 cm; 256×256; TR 2.1 sec; TE 12.4 msec; NEX 6; 7 minute acquisition time).
For each subject, rigid body motion in x-, y- and z-direction was computed with Stimulate software (Strupp, 1996, NeuroImage 3:S607) using center of intensity method. […] A conservative criteria of 120 μm standard deviation of motion in any direction was set as acceptance criteria.

[1] = then apomorphine 20 μg/10 μl ICV, BOLD fMRI, conscious rat
[2] = pre-treatment 5 mg/kg i.p., then apomorphine 20 μg/10 μl ICV, BOLD fMRI, conscious rat
[3] = apomorphine 20 μg/10 μl ICV, BOLD fMRI, conscious rat

With `O=C(CCCN1CCC(O)(c2ccc(Cl)cc2)CC1)c1ccc(F)cc1` [haloperidol] the “neuronal/glial activity in the anterior thalamic nuclei” value [1] was “reducing apomorphine-induced neuronal/glial activity” and the “neuronal/glial activity in the pituitary gland” value [1] was “reducing apomorphine-induced neuronal/glial activity”.

With `CN(C)CCCN1c2ccccc2Sc2ccc(Cl)cc21` [chlorpromazine] the “neuronal/glial activity in the dorsal striatum” value (antipsychotic pre-treatment i.p. (chlorpromazine, clozapine, olanzapine 5 mg/kg), then apomorphine 20 μg/10 μl ICV, BOLD fMRI, conscious rat) was “reduced”, the “neuronal/glial activity in the anterior thalamic nuclei” value [1] was “pronounced reduction” and the “neuronal/glial activity in the pituitary gland” value [1] was “pronounced reduction”. The “neuronal/glial activity in the CA1 region of the hippocampus” value [2] was “significant reduction in neuronal/glial activity”, the “neuronal/glial activity in the CA3 region of the hippocampus” value [2] was “significant reduction in neuronal/glial activity” and the “neuronal/glial activity in the dentate gyms region of the hippocampus” value [2] was “significant reduction in neuronal/glial activity”. The “neuronal/glial activity in the subiculum region of the hippocampus” value [2] was “significant reduction in neuronal/glial activity” and the “neuronal/glial activity throughout the hippocampus” value [2] was “selective reduction in activity”.

`CN1CCc2cccc3c2[C@H]1Cc1ccc(O)c(O)c1-3` [apomorphine] was tested, and the “activation of the anterior thalamic nuclei by apomorphine” value [3] was “activated”, the “activation of the dorsal striatum by apomorphine” value [3] was “activated” and the “activation of the pituitary gland by apomorphine” value [3] was “activated”. For the same compound, the “activation of the mesocorticolimbic dopamine system (reward pathway) by apomorphine” value (apomorphine alone, 20 μg/10 μl ICV, BOLD fMRI, conscious rat) was “activated”, the “change in BOLD signal intensity in the pituitary gland” value (time course following ICV administration of apomorphine (FIG. 3A)) was “increased” and the “change in BOLD signal intensity in the anterior thalamic nuclei” value (time course following ICV administration of apomorphine (FIG. 3B)) was “increased”. For the same compound, the “change in BOLD signal intensity in the dorsal striatum” value (time course following ICV administration of apomorphine (FIG. 3C)) was “increased”.
